Counter-ions that a name gives are not always drawn. Like-named read-outs stand apart in the source and are kept apart here.
Legend:
[1] = tested on: DOPAC levels (3,4-dihydroxyphenylacetic acid) in the rat striatum; conditions: 100 μmol/kg s.c., %-increase from control value, data taken from Table 2 in Ref 1 (J. Med. Chem. 1994, 37, 2735); cited from earlier work
[2] = tested on: DOPAC levels (3,4-dihydroxyphenylacetic acid) in the rat striatum; assay: Tissue content of DOPAC in rat striatum after systemic administration of test compound (in vivo neurochemistry); conditions: for change in vivo at 100 µmol/kg: sc, 1 h
Method: The measurement of the tissue content of DOPAC is well established in the field of research since the 1960's. In short, male Sprague-Dawely rats are administered the test compound 60 minutes prior to decapitation. The brain is rapidly taken out and dissected. The striatum is rapidly frozen and subsequently quantitatively analysed with respect to its content of DOPAC by means of HPLC and electrochemical detection. The number of animals used for each test compound/vehicle is 4/group.
Male Sprague-Dawley rats weighing 220-320 g are used throughout the experiments. Sixty (60) minutes following administration of the test substance, the rats are decapitated. Directly after decapitation the brain is removed from the skull and put on a glass petri bowl filled with ice. The limbic system (containing the nucleus accumbens—both the core and shell, most parts of the olfactory tubercle and ventral pallidum) is dissected using two thin, angled tweezers and put directly on foil on dry ice (carbon dioxide −78° C.). The striatum and cortex are then dissected and also put on dry ice. The time from decapitation until the last tissue is dissected varies from four to six minutes. The tissue is weighed using a Sartorius BP3105 connected to a computer and packed in labelled tin foil, then stored in an −80° C. freezer. Great care is taken in order to keep the tissue frozen until the time of neurochemical analysis. Each brain part is subsequently analyzed with respect to its content of monoamines and their metabolites.
The monoamine transmitter substances (NE (norepinephrine), DA (dopamine), 5-HT (serotonin)) as well as their amine (NM (normethanephrine), 3-MT (3-methoxy-tyramine)) and acid (DOPAC (3,4-dihydroxyphenylacetic acid), 5-HIAA (5-hydroxyindoleacetic acid), HVA (homovanillic acid)) metabolites are quantified in brain tissue homogenates by HPLC separations and electrochemical detection.
The analytical method is based on two chromatographic separations dedicated for amines or acids. Two chromatographic systems share a common auto injector with a 10-port valve and two sample loops for simultaneous injection on the two systems. Both systems are equipped with a reverse phase column (Luna C18(2), dp 3 μm, 50*2 mm i.d., Phenomenex) and electrochemical detection is accomplished at two potentials on glassy carbon electrodes (MF-1000, Bioanalytical Systems, Inc.). The column effluent is passed via a T-connection to the detection cell or to a waste outlet. This is accomplished by two solenoid valves, which block either the waste or detector outlet. By preventing the chromatographic front from reaching the detector, better detection conditions are achieved. The aqueous mobile phase (0.4 mL/min) for the acid system contains citric acid 14 mM, sodium citrate 10 mM, MeOH 15% (v/v) and EDTA 0.1 mM. Detection potentials relative to Ag/AgCl reference are 0.45 and 0.60V. The aqueous ion pairing mobile phase (0.5 mL/min) for the amine system contains citric acid 5 mM, sodium citrate 10 mM, MeOH 9% (v/v), MeCN 10.5% (v/v), decane sulfonic acid 0.45 mM, and EDTA 0.1 mM. Detection potentials relative to Ag/AgCl reference are 0.45 and 0.65V.

[3] = tested on: extracellular levels of dopamine, norepinephrine and serotonin in p.f. cortex and striatum; assay: In vivo microdialysis in awake and freely moving rats; set-up: species or system rat; conditions: 10 mg/kg s.c., FIG. 21
[4] = rat striatum, 100 μmol/kg s.c., %-increase from control value, 60 minutes after administration
[5] = Rattus norvegicus, read-out: DOPAC %-increase, rat striatum, 100 μmol/kg s.c., %-increase from control value, 60 minutes after administration

Compound | DOPAC %-increase [2, 4] | change in vivo at 100 µmol/kg [2, 5] [%] | also measured
CCCN1CCC[C@@H](c2cccc(S(C)(=O)=O)c2)C1 [Example 16 of ref. 1] | – | – | DOPAC %-increase [1]: +150^2%
CCN1CCC(O)(c2cc(F)cc(F)c2)C1 (single isomer, unassigned; (-)) [Example 1, (−)-3-(3,5-DIFLUOROPHENYL)-1-ETHYLPYRROLIDIN-3-OL] | 0% | – | –
CCN1CCC(O)(c2cc(F)cc(F)c2)C1 (single isomer, unassigned; (+)) [Example 2, (+)-3-(3,5-DIFLUOROPHENYL)-1-ETHYLPYRROLIDIN-3-OL] | −16% | – | –
CCN1CCC(O)(c2ccc(Cl)c(Cl)c2)C1 (stereo not drawn) [Example 10, 3-(3,4-DICHLOROPHENYL)-1-ETHYLPYRROLIDIN-3-OL] | – | -26 | –
CCN1CCC(O)(c2cccc(F)c2F)C1 (single isomer, unassigned; (-)) [Example 32, (−)-3-(2,3-DIFLUOROPHENYL)-1-ETHYLPYRROLIDIN-3-OL] | +8% | – | –
CCN1CCC(O)(c2cc(F)cc(Cl)c2)C1 (stereo not drawn) [Example 5, 3-(3-CHLORO-5-FLUOROPHENYL)-1-ETHYLPYRROLIDIN-3-OL] | – | -26 | –
CCCN1CCC(O)(c2ccc(F)c(F)c2)C1 (stereo not drawn) [Example 7, 3-(3,4-DIFLUOROPHENYL)-1-PROPYLPYRROLIDIN-3-OL] | – | 0 | –
CN1CCC(F)(c2cc(F)cc(F)c2)C1 (stereo not drawn) [Example 11, 3-(3,5-DIFLUOROPHENYL)-3-FLUORO-1-METHYLPYRROLIDINE] | – | – | change in vivo at 100 µmol/kg ([2]; rat striatum, 100 μmol/kg s.c., %-increase from control value, 60 minutes after administration, read-out: DOPAC %-increase): -4%
CCN1CCC(O)(c2ccc(F)c(Cl)c2)C1 (stereo not drawn) [Example 3, 3-(3-CHLORO-4-FLUOROPHENYL)-1-ETHYLPYRROLIDIN-3-OL] | – | -28 | –
CCN1CCC(O)(c2ccc(F)c(F)c2)C1 (stereo not drawn) [Example 12, 3-(3,4-DIFLUOROPHENYL)-1-ETHYLPYRROLIDIN-3-OL] | – | -19 | –
CN1CCN2c3ncccc3Cc3ccccc3C2C1 (stereo not drawn) [mirtazapine] | – | – | cortical NE levels [3]: marked increases in cortical NE levels; extracellular norepinephrine and dopamine in the cortex [3]: increase predominantly extracellullar norepinephrine and dopamine in the cortex
CCN1CCC(O)(c2cc(Cl)cc(Cl)c2)C1 (stereo not drawn) [Example 6, 3-(3,5-DICHLOROPHENYL)-1-ETHYLPYRROLIDIN-3-OL] | – | -10 | –
CCN1CCC(O)(c2cc(F)cc(F)c2)C1 (stereo not drawn) [Example 8, 3-(3,5-DIFLUOROPHENYL)-1-ETHYLPYRROLIDIN-3-OL] | −24% | – | –
CCN1CCC(O)(c2cccc(F)c2F)C1 (stereo not drawn) [Example 4, 3-(2,3-DIFLUOROPHENYL)-1-ETHYLPYRROLIDIN-3-OL] | −10% | – | –
CCCN1CCC(O)(c2cc(F)cc(F)c2)C1 (stereo not drawn) [Example 9, 3-(3,5-DIFLUOROPHENYL)-1-PROPYLPYRROLIDIN-3-OL] | – | -5 | –
CCN1CCC(O)(c2cccc(F)c2F)C1 (single isomer, unassigned; (+)) [Example 36, (+)-3-(2,3-DIFLUOROPHENYL)-1-ETHYLPYRROLIDIN-3-OL] | −15% | – | –
CCN1CCC(O)(c2cccc(F)c2F)C1 (single isomer, unassigned; (-)) (as salt: oxalic acid salt) [Example 32, (−)-3-(2,3-DIFLUOROPHENYL)-1-ETHYLPYRROLIDIN-3-OL] | – | – | melting point: 118 to 120 °C

From patent US8188301B2, “Disubstituted phenylpyrrolidines as modulators of cortical catecholaminergic neurotransmission” (NSAB, Filial af NeuroSearch Sweden AB, Sverige, priority 2007, dated 2012)
